# Experimental data taken from the pKa sets of Baltruschat and Czodrowski (2020).
# Where a SMILES comes first, the peptide text is derived from it.
# Details: acidic group
row,SMILES,pKa
1,O=C(O)c1cccc([N+](=O)[O-])c1Cl,2.02
2,CCCCN(C(=O)c1cccc(O)c1)c1ccc(/N=N/c2ccc3c(c2)OCCOCCOCCOCCOCCO3)cc1,9.54
3,C[C@H]1CCCC[C@@H]1C(=O)O,4.74
4,Sc1cccc(Cl)c1,5.76
5,OC(CBr)(Oc1ccccc1)c1ccccc1 (stereo not given),11.2
6,O=C([O-])/C=C\C(=O)NOCc1ccccc1,10
7,O=C(O)CP,4.07
8,Oc1ccc2c(c1)CCCC2,10.3
9,CCc1cc(C(C)C)ccc1O,10.8
10,COc1cccc(/C=N/O)c1,10.6
11,Cc1cc2nc3ccc(N(C)C)cc3nc2cc1N,14.7
12,O=C(O)c1ccc[nH]1,4.35
13,O=C(O)CCCl,4.04
14,CN(O)C(=O)c1ccccc1,8.07
15,C/C(=N/c1ccccc1O)c1ccccc1O,9.23
16,O=C(O)c1ccc(Br)s1,3.3
17,CCCCCC/C=N/O,11.6

row,SMILES,pKa
1,N#Cc1ccc(C(=O)S)cc1,1.42
2,CC(=O)N1C[C@@]2(C(C)C)OC(=O)C[C@H]2[C@@H]1C(=O)O,3.2
3,O=C1CNC(=O)[C@H](Cc2ccc(O)cc2)N1,9.47
4,CCOC(=O)C[N+](=O)[O-],5.82
5,Cc1ccccc1S(=O)O,1.47
6,Cc1cc(O)nn1-c1ccccc1,12.1
7,O=C(O)CCc1ccc([N+](=O)[O-])cc1,4.54
8,C=CCC1(C2=CCCCC2)C(=O)[N-]C(=S)NC1=O,11.7
9,Nc1cccc2c(O)cccc12,10.3
10,CC(C)Nc1ncnc2[nH]ncc12,11
11,CCCCC([NH3+])C(=O)O (stereo not given),2.29
12,Cc1cc([N+](=O)[O-])ccc1O,7.1
13,O=C(O)c1csc(Br)c1,3.7
14,Cc1ccc(O)c(Cc2cc([N+](=O)[O-])ccc2[O-])c1,11.5
15,CC(C)[C@H]1C[NH2+][C@H](C(=O)[O-])[C@H]1CC(=O)O,4.23
16,C[N+](C)(O)c1ccccc1,4.21
17,Fc1cccc(NC(=S)c2cccc(Br)c2)c1,10

# Same assay, conditions: basic group
row,SMILES,pKa
1,CC(C)n1nnnc1N,1.91
2,CN1CCCN(C)c2cccc3cccc1c23,10.3
3,NC1CCc2ccccc2C1 (stereo not given),9.97
4,Cc1ccc2c(c1)NCCN2,4.97
5,Cc1ccc2nccc(NCCC[NH+](C)C)c2c1[N+](=O)[O-],6.15
6,Cc1ccccc1/C(=N/CCC[NH+](C)C)c1ccc2ccccc2c1,4.54
7,Cc1cc2nc3ccc(N(C)C)cc3nc2cc1N,7.18
8,N#CCCN,7.75
9,O=C(O)c1ccc[nH]1,-0.65
10,CCCCCCCCN(CCO)CC(C)O (stereo not given),8.2
11,C/C(=N/c1ccccc1O)c1ccccc1O,5.14
12,Cc1ccc(CN)cc1,9.51
13,Cc1cccc(C)c1C(=N)c1ccccc1,7.71
14,Nc1cccc2c1ccc1ncccc12,5.2
15,Cc1cccc2cc3ccccc3nc12,4.5
16,[NH3+]CCCc1cccnc1,5.19
17,NCc1ccncc1,8.3
18,COc1cc(N)cc(C(=O)N[C@@H]2C[C@H]3CC[C@@H](C2)N3Cc2ccccc2)c1OC,9.07

row,SMILES,pKa
1,CCn1ccnc1C,8.09
2,CCCCCCN(CC(O)CC)CC(O)CC (stereo not given),8.6
3,Cn1cncn1,2.31
4,Cn1cnc(C(=O)[O-])c1C(=O)[O-],8
5,Nc1cccc2c(O)cccc12,4.15
6,O=C([O-])[C@@H]1CCCN1C(=O)[C@@H]1CCCN1 (H-Pro-Pro-OH),9.27
7,CC(C)Nc1ncnc2[nH]ncc12,4.62
8,CCN(C)c1ccccc1,6.02
9,CCNCCNCC,10.5
10,CCc1cc(Cl)c(OC)c(C(=O)NC[C@H]2CCCN2CC)c1[O-],9.77
11,c1cc(-c2cc[nH+]cc2)ccn1,3.17
12,CC(=O)OCC1CN2CCC1CC2 (stereo not given),10.3
13,CCCN(CCC)CC(=O)NC1c2ccccc2-c2ccccc21,7.28
14,C[Si](C)(C)CNc1ccccc1,5.3
15,Nc1ccc2c(c1)-c1c(ccc3ccccc13)C2,4.67
16,NCCc1ccc([N+](=O)[O-])cc1,9.42
17,CC(C)(C)[C@]1(O)CCN2C[C@@H](c3ccccc3)c3ccccc3[C@@H]2C1,7.03
18,NCc1cccnc1,8.33
